ChEMBL document CHEMBL3885881, “DrugMatrix”

Species on record: Rattus norvegicus
Assay: DrugMatrix - Regimen: Daily Repeat
Format: toxicity, organism-based, Sprague-Dawley
Set-up: regimen Daily Repeat, gender Male, age 6-8 weeks
Conditions: in vivo, po, route oral GAVAGE, […]; for ABSOLUTE BASOPHIL / ABSOLUTE EOSINOPHIL / ABSOLUTE LYMPHOCYTE / ABSOLUTE MONOCYTE / ABSOLUTE SEGMENTED NEUTROPHIL / BASOPHIL / EOSINOPHIL / ERYTHROCYTE COUNT / HEMATOCRIT / HEMOGLOBIN / LEUKOCYTE COUNT / LYMPHOCYTE / MEAN CORPUSCULAR HEMOGLOBIN / MEAN CORPUSCULAR HEMOGLOBIN CONCENTRATION / MEAN CORPUSCULAR VOLUME / MONOCYTE / NEUTROPHIL / NUCLEATED RED BLOOD CELLS / PLATELET COUNT: tissue Blood; for ALANINE AMINOTRANSFERASE / ALBUMIN / ALKALINE PHOSPHATASE / ASPARTATE AMINOTRANSFERASE / BLOOD UREA NITROGEN / CARBON DIOXIDE / CHLORIDE / CHOLESTEROL / CREATINE PHOSPHOKINASE / CREATININE / GLUCOSE / LACTATE DEHYDROGENASE / LIPASE / PHOSPHORUS / POTASSIUM / SODIUM / TOTAL BILIRUBIN / TOTAL PROTEIN / URIC ACID: tissue Plasma
[1] = 25 mg/kg, 72 h, dose level Low, time 3 day
[2] = 25 mg/kg, 120 h, dose level Low, time 5 day
[3] = 100 mg/kg, 72 h, dose level High, time 3 day
[4] = 100 mg/kg, 120 h, dose level High, time 5 day

Compound: CN(C)CCCN1c2ccccc2Sc2ccccc21 [PROMAZINE]
- ABSOLUTE BASOPHIL [1]: 0 CELLS/uL
- ABSOLUTE EOSINOPHIL [1]: 145.33 CELLS/uL
- ABSOLUTE LYMPHOCYTE [1]: 11142.33 CELLS/uL
- ABSOLUTE MONOCYTE [1]: 92 CELLS/uL
- ABSOLUTE SEGMENTED NEUTROPHIL [1]: 1153.67 CELLS/uL
- BASOPHIL [1]: 0%
- EOSINOPHIL [1]: 0.67%
- ERYTHROCYTE COUNT [1]: 5.31 x10E6/uL
- HEMATOCRIT [1]: 33.93%
- HEMOGLOBIN [1]: 13.5 G/DL
- LEUKOCYTE COUNT [1]: 12.53 x10E3/uL
- LYMPHOCYTE [1]: 87.67%
- MEAN CORPUSCULAR HEMOGLOBIN [1]: 25.47 pg
- MEAN CORPUSCULAR HEMOGLOBIN CONCENTRATION [1]: 39.77 G/DL
- MEAN CORPUSCULAR VOLUME [1]: 63.93 fL
- MONOCYTE [1]: 1.33%
- NEUTROPHIL [1]: 10.33%
- NUCLEATED RED BLOOD CELLS [1]: 0.67 /100WBC
- PLATELET COUNT [1]: 1124.33 x10E3/uL
- ALANINE AMINOTRANSFERASE [1]: 95 u/L
- ALBUMIN [1]: 4.03 G/DL
- ALKALINE PHOSPHATASE [1]: 542.33 u/L
- ASPARTATE AMINOTRANSFERASE [1]: 104 u/L
- BLOOD UREA NITROGEN [1]: 14 mg/dL
- CARBON DIOXIDE [1]: 32 mmol/L
- CHLORIDE [1]: 101.67 MEQ/L
- CHOLESTEROL [1]: 76.67 mg/dL
- CREATINE PHOSPHOKINASE [1]: 359.33 u/L
- CREATININE [1]: 0.17 mg/dL
- GLUCOSE [1]: 185.67 mg/dL
- LACTATE DEHYDROGENASE [1]: 147.67 u/L
- LIPASE [1]: 9.33 u/L
- PHOSPHORUS [1]: 12.17 mg/dL
- POTASSIUM [1]: 6.17 MEQ/L
- SODIUM [1]: 143.27 MEQ/L
- TOTAL BILIRUBIN [1]: 0.17 mg/dL
- TOTAL PROTEIN [1]: 5.57 G/DL
- URIC ACID [1]: 1.23 mg/dL
- ABSOLUTE BASOPHIL [2]: 0 CELLS/uL
- ABSOLUTE EOSINOPHIL [2]: 84.33 CELLS/uL
- ABSOLUTE LYMPHOCYTE [2]: 7389.33 CELLS/uL
- ABSOLUTE MONOCYTE [2]: 65.33 CELLS/uL
- ABSOLUTE SEGMENTED NEUTROPHIL [2]: 894.33 CELLS/uL
- BASOPHIL [2]: 0%
- EOSINOPHIL [2]: 1%
- ERYTHROCYTE COUNT [2]: 5.37 x10E6/uL
- HEMATOCRIT [2]: 34.2%
- HEMOGLOBIN [2]: 13.47 G/DL
- LEUKOCYTE COUNT [2]: 8.43 x10E3/uL
- LYMPHOCYTE [2]: 88.67%
- MEAN CORPUSCULAR HEMOGLOBIN [2]: 25.1 pg
- MEAN CORPUSCULAR HEMOGLOBIN CONCENTRATION [2]: 39.4 G/DL
- MEAN CORPUSCULAR VOLUME [2]: 63.67 fL
- MONOCYTE [2]: 0.67%
- NEUTROPHIL [2]: 9.67%
- NUCLEATED RED BLOOD CELLS [2]: 0.33 /100WBC
- PLATELET COUNT [2]: 1228.67 x10E3/uL
- ALANINE AMINOTRANSFERASE [2]: 54.33 u/L
- ALBUMIN [2]: 4.17 G/DL
- ALKALINE PHOSPHATASE [2]: 463.67 u/L
- ASPARTATE AMINOTRANSFERASE [2]: 73.33 u/L
- BLOOD UREA NITROGEN [2]: 15 mg/dL
- CARBON DIOXIDE [2]: 28.33 mmol/L
- CHLORIDE [2]: 103.33 MEQ/L
- CHOLESTEROL [2]: 61.67 mg/dL
- CREATINE PHOSPHOKINASE [2]: 324.67 u/L
- CREATININE [2]: 0.27 mg/dL
- GLUCOSE [2]: 188.67 mg/dL
- LACTATE DEHYDROGENASE [2]: 154 u/L
- LIPASE [2]: 10.33 u/L
- PHOSPHORUS [2]: 12.03 mg/dL
- POTASSIUM [2]: 5.86 MEQ/L
- SODIUM [2]: 145.6 MEQ/L
- TOTAL BILIRUBIN [2]: 0.23 mg/dL
- TOTAL PROTEIN [2]: 5.97 G/DL
- URIC ACID [2]: 1.8 mg/dL
- ABSOLUTE BASOPHIL [3]: 0 CELLS/uL
- ABSOLUTE EOSINOPHIL [3]: 0 CELLS/uL
- ABSOLUTE LYMPHOCYTE [3]: 15637.67 CELLS/uL
- ABSOLUTE MONOCYTE [3]: 123 CELLS/uL
- ABSOLUTE SEGMENTED NEUTROPHIL [3]: 572.67 CELLS/uL
- BASOPHIL [3]: 0%
- EOSINOPHIL [3]: 0%
- ERYTHROCYTE COUNT [3]: 6.09 x10E6/uL
- HEMATOCRIT [3]: 37.23%
- HEMOGLOBIN [3]: 15.1 G/DL
- LEUKOCYTE COUNT [3]: 16.33 x10E3/uL
- LYMPHOCYTE [3]: 96%
- MEAN CORPUSCULAR HEMOGLOBIN [3]: 24.83 pg
- MEAN CORPUSCULAR HEMOGLOBIN CONCENTRATION [3]: 40.57 G/DL
- MEAN CORPUSCULAR VOLUME [3]: 61.17 fL
- MONOCYTE [3]: 0.67%
- NEUTROPHIL [3]: 3.33%
- NUCLEATED RED BLOOD CELLS [3]: 0 /100WBC
- PLATELET COUNT [3]: 1276.67 x10E3/uL
- ALANINE AMINOTRANSFERASE [3]: 60.33 u/L
- ALBUMIN [3]: 4.43 G/DL
- ALKALINE PHOSPHATASE [3]: 366.67 u/L
- ASPARTATE AMINOTRANSFERASE [3]: 101.33 u/L
- BLOOD UREA NITROGEN [3]: 17 mg/dL
- CARBON DIOXIDE [3]: 28 mmol/L
- CHLORIDE [3]: 101.67 MEQ/L
- CHOLESTEROL [3]: 88 mg/dL
- CREATINE PHOSPHOKINASE [3]: 986.67 u/L
- CREATININE [3]: 0.37 mg/dL
- GLUCOSE [3]: 131.67 mg/dL
- LACTATE DEHYDROGENASE [3]: 335 u/L
- LIPASE [3]: 12.67 u/L
- PHOSPHORUS [3]: 11.5 mg/dL
- POTASSIUM [3]: 6.17 MEQ/L
- SODIUM [3]: 143.73 MEQ/L
- TOTAL BILIRUBIN [3]: 0.23 mg/dL
- TOTAL PROTEIN [3]: 6.1 G/DL
- URIC ACID [3]: 1.2 mg/dL
- ABSOLUTE BASOPHIL [4]: 0 CELLS/uL
- ABSOLUTE EOSINOPHIL [4]: 74.67 CELLS/uL
- ABSOLUTE LYMPHOCYTE [4]: 9603.33 CELLS/uL
- ABSOLUTE MONOCYTE [4]: 53.33 CELLS/uL
- ABSOLUTE SEGMENTED NEUTROPHIL [4]: 302 CELLS/uL
- BASOPHIL [4]: 0%
- EOSINOPHIL [4]: 0.67%
- ERYTHROCYTE COUNT [4]: 5.25 x10E6/uL
- HEMATOCRIT [4]: 32.53%
- HEMOGLOBIN [4]: 13.13 G/DL
- LEUKOCYTE COUNT [4]: 10.03 x10E3/uL
- LYMPHOCYTE [4]: 95.67%
- MEAN CORPUSCULAR HEMOGLOBIN [4]: 24.97 pg
- MEAN CORPUSCULAR HEMOGLOBIN CONCENTRATION [4]: 40.37 G/DL
- MEAN CORPUSCULAR VOLUME [4]: 61.93 fL
- MONOCYTE [4]: 0.67%
- NEUTROPHIL [4]: 3%
- NUCLEATED RED BLOOD CELLS [4]: 0 /100WBC
- PLATELET COUNT [4]: 1046.33 x10E3/uL
- ALANINE AMINOTRANSFERASE [4]: 59.33 u/L
- ALBUMIN [4]: 4.03 G/DL
- ALKALINE PHOSPHATASE [4]: 341.67 u/L
- ASPARTATE AMINOTRANSFERASE [4]: 113 u/L
- BLOOD UREA NITROGEN [4]: 19 mg/dL
- CARBON DIOXIDE [4]: 25.67 mmol/L
- CHLORIDE [4]: 105 MEQ/L
- CHOLESTEROL [4]: 57 mg/dL
- CREATINE PHOSPHOKINASE [4]: 469 u/L
- CREATININE [4]: 0.22 mg/dL
- GLUCOSE [4]: 246.33 mg/dL
- LACTATE DEHYDROGENASE [4]: 616 u/L
- LIPASE [4]: 10.33 u/L
- PHOSPHORUS [4]: 12.93 mg/dL
- POTASSIUM [4]: 5.03 MEQ/L
- SODIUM [4]: 147.63 MEQ/L
- TOTAL BILIRUBIN [4]: 0.2 mg/dL
- TOTAL PROTEIN [4]: 5.5 G/DL
- URIC ACID [4]: 2.07 mg/dL
